Assay results: patent publication US8975250B2, “5 oxo-5,8-dihydropyrido[2,3-d]pyrimidine derivatives as CaMKII kinase inhibitors for treating cardiovascular diseases” (SANOFI, priority 2010, dated 2015)

Target: CaMKIIδ (Homo sapiens (Human), UniProt Q13557)
Test: radioactive test on the recombinant CaMKIIδ enzyme (ATP-γ33P incorporation into Autocamtide-2)
Type: biochemical
Details: recombinant CaMKIIδ 0.37 nM, 10 μM ATP, 100 μM Autocamtide-2, two hours at 37°C
Protocol: The compounds according to the invention were tested in vitro for their capacity to inhibit the kinase function of calcium/calmodulin-dependent protein kinase II delta (CaMKIIδ). CaMKIIδis an intracellular serine/threonine kinase. It has an enzymatic domain that is capable of using ATP to autophosphorylate. Its kinase function allows it to use ATP to phosphorylate its substrates on the serines and/or threonines. Several enzymatic and cellular tests are used to evaluate the activity of the products with respect to the kinase function of CaMKIIδ. The kinase activity of CaMKIIδis evaluated by means of a radioactive test on the recombinant CaMKIIδenzyme. The amount of ATP-γ33P incorporated into the specific substrate Autocamtide-2 during its phosphorylation by CaMKIIδis measured. The effect of the products is quantified by the concentration of product that inhibits the total activity of CaMKIIδby 50% (50% inhibitory concentration=IC50). For the determination of the IC50 values, the product is diluted in 100% of DMSO to obtain a 10 mM stock solution. The concentration range tested during the radioactive test ranges from 3 to 10 000 nM with a final concentration in the test of 1% DMSO. This concentration range may, for the most powerful compounds, be extended to 0.1 nM. On the day of the operation, 5 μl of the compounds are deposited in each well of a 96-well plate at 10 times the concentration of that to be tested. Each concentration is tested in duplicate on the same plate. The negative controls (0% activity) and positive controls (100% activity) receive 5 μL of 10% DMSO solution. A reaction premix containing the 1×kinase buffer and an ATP-MgCl2 mixture is prepared. Extemporaneously, a mixture containing the substrate Autocamtide-2 (100 μM) with calmodulin and calcium, and the solution of enzyme CaMKIIδ, is added to the premix. 45 μL of this mixture are immediately deposited per well. The final concentrations in the 50 μL final volume are as follows: compound 1X, 0.37 nM of CaMKIIδ(Invitrogen reference PV3373), 10 μM of ATP (1 μCi per well), 100 μM of Autocamtide-2, […] of calmodulin, 15 mM MgCl2, 400 μM CaCl2, 10 mM β-glycerophosphate, and 1% of DMSO. Two negative controls are prepared on each plate, a first without enzyme CaMKIIδ, and a second without substrate Autocamtide-2; these two elements are replaced with water. The plate is then incubated for two hours at 37°C. with gentle shaking. The reaction is stopped by adding 20 μL per well of H3PO4 solution. The 50 μL of each well are transferred onto a Whatman P81 filter. After rinsing twice with H3PO4 (150 μl/well per wash), followed by two rinses with 150 μL of H2O, 50 μL of scintillant are added per well. The amount of phosphorylated substrate is detected by means of a liquid scintillation counter. The inhibitory activity toward CaMKIIδis given by the concentration that inhibits 50% of the activity of CaMKIIδ. The IC50 values are generally between 10 μM and 10^−5 μM. In the table below, the IC50 values measured for several compounds (I) of the invention are presented as examples.

IC50	SMILES
260 nM	CCn1c(N)c(C(N)=O)c(=O)c2cnc(Nc3ccc(C(=O)N4CCN(C)CC4)cc3)nc21 [compound 4, 7-Amino-8-ethyl-2-[4-(4-methylpiperazine-1-carbonyl)phenylamino]-5-oxo-5,8-dihydropyrido[2,3-d]pyrimidine-6-carboxamide]
17 nM	CCn1c(N)c(C(N)=O)c(=O)c2cnc(Nc3ccc(C4CCN(C5CC5)CC4)cc3OC)nc21 [compound 29, 7-Amino-2-[4-(1-cyclopropylpiperid-4-yl)-2-methoxyphenylamino]-8-ethyl-5-oxo-5,8-dihydropyrido[2,3-d]pyrimidine-6-carboxamide]
22 nM	CCn1c(N)c(C(N)=O)c(=O)c2cnc(Nc3ccc(C4CCN(CCC(F)(F)F)CC4)cc3OC)nc21 [compound 35, 7-Amino-8-ethyl-2-{2-methoxy-4-[1-(3,3,3-trifluoropropyl)piperid-4-yl]phenylamino}-5-oxo-5,8-dihydropyrido[2,3-d]pyrimidine-6-carboxamide]
139 nM	CC(C)Cn1c(N)c(C(N)=O)c(=O)c2cnc(Nc3ccc(CCN4CCOCC4)cc3)nc21 [compound 52, 7-Amino-8-isobutyl-2-[4-(2-morpholin-4-ylethyl)phenylamino]-5-oxo-5,8-dihydropyrido[2,3-d]pyrimidine-6-carboxamide]
663 nM	CN(C)Cc1ccc(Nc2ncc3c(=O)c(C(N)=O)c(N)n(CC(F)(F)F)c3n2)cc1 [compound 60, 7-Amino-2-(4-dimethylaminomethylphenylamino)-5-oxo-8-(2,2,2-trifluoroethyl)-5,8-dihydropyrido[2,3-d]pyrimidine-6-carboxamide]
8 nM	CCn1c(N)c(C(N)=O)c(=O)c2cnc(Nc3ccc(N4CCC(N5CCCC5)CC4)c(Cl)c3)nc21 [compound 61, 7-Amino-2-[3-chloro-4-(4-pyrrolidin-1-ylpiperid-1-yl)phenylamino]-8-ethyl-5-oxo-5,8-dihydropyrido[2,3-d]pyrimidine-6-carboxamide]
37 nM	CCn1c(N)c(C(N)=O)c(=O)c2cnc(Nc3ccc4c(c3)CCNC4)nc21 [compound 75, 7-Amino-8-ethyl-5-oxo-2-(1,2,3,4-tetrahydroisoquinolin-6-ylamino)-5,8-dihydropyrido[2,3-d]pyrimidine-6-carboxamide]
118 nM	CCn1c(N)c(C(N)=O)c(=O)c2cnc(Nc3ccc(OC4CCN(C)CC4)cc3)nc21 [compound 76, 7-Amino-8-ethyl-2-[4-(1-methylpiperid-4-yloxy)phenylamino]-5-oxo-5,8-dihydropyrido[2,3-d]pyrimidine-6-carboxamide]
268 nM	CCn1c(N)c(C(N)=O)c(=O)c2cnc(Nc3cccc(CN(C)C)c3)nc21 [compound 78, 7-Amino-2-(3-dimethylaminomethylphenylamino)-8-ethyl-5-oxo-5,8-dihydropyrido[2,3-d]pyrimidine-6-carboxamide]
396 nM	CCc1cc(N2CCN(C3CC3)CC2)ccc1Nc1ncc2c(=O)c(C(N)=O)c(N)n(CC)c2n1 [compound 96, 7-Amino-2-[4-(4-cyclopropylpiperazin-1-yl)-2-ethylphenylamino]-8-ethyl-5-oxo-5,8-dihydropyrido[2,3-d]pyrimidine-6-carboxamide]
